From PubChem BioAssay AID2060508 (Molecular Pharmacology Branch, DTP, NCI, 2025)
Where “and” joins values, the source holds several entries; their conditions need not be identical. Identical values can stand only once.

Tested on: 454973-116-R2-J3-PDC spheroids, viability, % test/control
Assay: Anticancer human tumor 454973-116-R2-J3-PDC patient-derived pancreatic carcinoma cell line growth inhibition [GQUAD]
Details: spheroids with HUVEC and MSC; for viability, T/C: stronger effect = lower value
Description: DNA G-quadruplex Stabilizer Agents in Combinations in Complex Spheroids
A high-throughput screen of multi-cell type tumor spheroids was designed to identify active combinations of DNA G-quadruplex stabilizer agents and targeted small molecules. Complex spheroids include a stromal component modeled by human endothelial cells (HUVEC) and fibroblasts modeled by human mesenchymal stem cells (MSCs). The concentration ranges selected for each drug and investigational agent were based upon clinically achievable concentrations if the clinical Cmax of the agent was known.
Compounds. The drugs and investigational agents: pidnarulex (CX-5461; NSC782164), APTO-253 (NSC789042), BRACO-19 (NSC847499), peposertib (NSC802822), ceralasertib (NSC780249), elimusertib (NSC800525), camonsertib (NSC841442), AZD-1390 (NSC803789), olaparib (NSC753686), talazoparib (NSC767125), ART-558 (NSC835418), sotorasib (NSC818433), MRTX-1133 (NSC836407), SN-38 (NSC673596), topotecan (NSC609699), etoposide (NSC141540), doxorubicin (NSC123127), gemcitabine (NSC613327), 5-fluorouracil (NSC19893), paclitaxel (NSC125973), vemurafenib (NSC761431), panobinostat (NSC761190), R-306465 (JNJ-16241199; NSC773264), adavosertib (NSC754352), TP-3654 (NSC805149), carboplatin (NSC241240), KSQ-4279 (NSC840948), and staurosporine (NSC755774) were obtained from the National Cancer Institute (NCI) Developmental Therapeutics Program Chemical Repository (34). The FDA-approved anticancer drug set is available from the NCI Developmental Therapeutics Program. […] The stock solutions were prepared in dimethyl sulfoxide (DMSO, Sigma-Aldrich, St. Louis, MO, cat. D2650) at 800-fold the tested concentration and stored at -70 degrees C prior to their use. All drugs and investigational agents were tested over a range starting from a high concentration at or near the clinical Cmax and decreasing in half-log increments. If the clinical Cmax for an agent had not been determined, the highest concentration tested was 10 microM.
2.3 Cell Culture. All cells were maintained in an incubator at 37 degrees C and 5% CO2 with 95% humidity. The PDC lines were cultured according to standard operating procedures established by the NCI PDMR. All PDCs were thawed and cultured in Matrigel-coated flasks prepared with a working solution of 1X Ham's F-12 nutrient mix, without supplementation (Invitrogen, cat. 11765054), 100 U/mL penicillin-streptomycin (Invitrogen, cat. 15140122), and 2.5% Matrigel (Corning Inc., cat. 354248) for the first three passages. The 857933-349-R-J2-PDC line was cultured in 6C/Colon 1B media, which includes advanced DMEM/F-12 (Thermo Fisher Scientific, cat. 12634028), 10 mM HEPES (Thermo Fisher Scientific, cat. 15630080), 1X GlutaMAX supplement (Thermo Fisher Scientific, cat. 35050061), 0.1 mg/mL primocin (InvivoGen, cat. ant-pm-2), 10% defined fetal bovine serum, heat inactivated (HyClone Laboratories Inc., cat. SH30070.03HI), 50% L-WRN conditioned media (ATCC, cat. CRL-3276), 1.25 mM N-Acetyl-L-cysteine (Sigma-Aldrich, cat. A9165), 10 mM nicotinamide (Sigma-Aldrich, cat. N0636), 1X B-27 supplement (Thermo Fisher Scientific, cat. 17504044), 1X N-2 supplement (Thermo Fisher Scientific, cat. 17502048), 10 microM Y-27632 dihydrochloride (Tocris Bioscience, cat. 1254), and 50 ng/mL human EGF recombinant protein (Thermo Fisher Scientific, cat. PHG0311). The 485176-168-R4-J1-PDC line was cultured in Panc media, which includes all 6C/Colon 1B media components plus 100 ng/mL human FGF-10 (Thermo Fisher Scientific, cat. 100-26), 500 nM SB-431542 (Selleckchem, cat. S1067), and gastrin (Tocris, cat. 3006).
[…]
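Further: spheroids exposed to compounds for seven days.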

C=CC(=O)N1CCN(c2nc(=O)n(-c3c(C)ccnc3C(C)C)c3nc(-c4c(O)cccc4F)c(F)cc23)C(C)C1 (centres undefined)
viability, T/C (compound 0.0316 µM): 105% and 109% and 98.9% | viability, T/C (compound 0.1 µM): 108% and 100% and 98.3% | viability, T/C (compound 0.316 µM): 108% and 105% and 116% | viability, T/C (compound 1 µM): 111% and 116% and 110% | viability, T/C (compound 3.16 µM): 111% and 110% and 115% | viability, T/C (compound 10 µM): 115% and 108% and 109% | IC50 (curve of compound): > 10 µM

Cc1[nH]c2ccc(F)cc2c1-c1nc2c3cccnc3c3ncccc3c2[nH]1
viability, T/C (compound 0.0316 µM): 106% [middle of 12 runs] | viability, T/C (compound 0.1 µM): 110% [middle of 12 runs] | viability, T/C (compound 0.316 µM): 106% [middle of 12 runs] | viability, T/C (compound 1 µM): 105% [middle of 12 runs] | viability, T/C (compound 3.16 µM): 100% [middle of 12 runs] | viability, T/C (compound 10 µM): 88.5% [middle of 12 runs] | IC50 (compound alone, run of 04/16/2024): > 10 µM | IC50 (compound alone, run of 04/22/2024): > 10 µM

COc1cccc2c1C(=O)c1c(O)c3c(c(O)c1C2=O)CC(O)(C(=O)CO)CC3OC1CC(N)C(O)C(C)O1 (centres undefined) + Cc1[nH]c2ccc(F)cc2c1-c1nc2c3cccnc3c3ncccc3c2[nH]1
IC50 (curve of first compound, second compound 0.0316 µM): 0.166 µM | IC50 (curve of first compound, second compound 0.1 µM): 0.188 µM | IC50 (curve of first compound, second compound 0.316 µM): 0.154 µM | IC50 (curve of first compound, second compound 1 µM): 0.143 µM | IC50 (curve of first compound, second compound 3.16 µM): 0.145 µM | IC50 (curve of first compound, second compound 10 µM): 0.158 µM | viability, T/C (second compound 0.0316 µM, first compound 0.0316 µM): 106% | viability, T/C (second compound 0.0316 µM, first compound 0.1 µM): 63.1% | viability, T/C (second compound 0.0316 µM, first compound 0.316 µM): 30.4% | viability, T/C (second compound 0.0316 µM, first compound 1 µM): 22.6% | viability, T/C (second compound 0.0316 µM, first compound 3.16 µM): 11.4% | viability, T/C (second compound 0.0316 µM, first compound 10 µM): 0.63% | viability, T/C (second compound 0.1 µM, first compound 0.0316 µM): 97.8% | viability, T/C (second compound 0.1 µM, first compound 0.1 µM): 69.8% | viability, T/C (second compound 0.1 µM, first compound 0.316 µM): 27.2% | viability, T/C (second compound 0.1 µM, first compound 1 µM): 28.9% | viability, T/C (second compound 0.1 µM, first compound 3.16 µM): 11% | viability, T/C (second compound 0.1 µM, first compound 10 µM): 0.58% | viability, T/C (second compound 0.316 µM, first compound 0.0316 µM): 96.5% | viability, T/C (second compound 0.316 µM, first compound 0.1 µM): 59.7% | viability, T/C (second compound 0.316 µM, first compound 0.316 µM): 27.6% | viability, T/C (second compound 0.316 µM, first compound 1 µM): 28.2% | viability, T/C (second compound 0.316 µM, first compound 3.16 µM): 11.8% | viability, T/C (second compound 0.316 µM, first compound 10 µM): 0.44% | viability, T/C (second compound 1 µM, first compound 0.0316 µM): 90.6% | viability, T/C (second compound 1 µM, first compound 0.1 µM): 61.4% | viability, T/C (second compound 1 µM, first compound 0.316 µM): 24.3% | viability, T/C (second compound 1 µM, first compound 1 µM): 26.2% | viability, T/C (second compound 1 µM, first compound 3.16 µM): 11.1% | viability, T/C (second compound 1 µM, first compound 10 µM): 0.62% | viability, T/C (second compound 3.16 µM, first compound 0.0316 µM): 93.1% | viability, T/C (second compound 3.16 µM, first compound 0.1 µM): 59.6% | viability, T/C (second compound 3.16 µM, first compound 0.316 µM): 27.6% | viability, T/C (second compound 3.16 µM, first compound 1 µM): 24.4% | viability, T/C (second compound 3.16 µM, first compound 3.16 µM): 14.8% | viability, T/C (second compound 3.16 µM, first compound 10 µM): 0.52% | viability, T/C (second compound 10 µM, first compound 0.0316 µM): 81.9% | viability, T/C (second compound 10 µM, first compound 0.1 µM): 64.7% | viability, T/C (second compound 10 µM, first compound 0.316 µM): 27% | viability, T/C (second compound 10 µM, first compound 1 µM): 27.1% | viability, T/C (second compound 10 µM, first compound 3.16 µM): 11.5% | viability, T/C (second compound 10 µM, first compound 10 µM): 0.75%

C#Cc1c(F)ccc2cc(O)cc(-c3ncc4c(N5CC6CCC(C5)N6)nc(OCC56CCCN5CC(F)C6)nc4c3F)c12 (centres undefined)
viability, T/C (compound 0.0316 µM): 52.7% and 54.6% and 60.6% | viability, T/C (compound 0.1 µM): 42.3% and 39% and 39.8% | viability, T/C (compound 0.316 µM): 31.2% and 22.9% and 28.2% | viability, T/C (compound 1 µM): 27.5% and 20.6% and 21.6% | viability, T/C (compound 3.16 µM): 23.3% and 19.5% and 22% | viability, T/C (compound 10 µM): 19% and 15.4% and 15.2% | IC50 (curve of compound): 0.0423 µM and 0.0444 µM and 0.0567 µM
